Results: the NIST ThermoML archive (doi:10.1016/j.jct.2011.01.017)

Details: Liquid, DSC

CCCCCCCCCCCCCC(=O)OCC [ethyl tetradecanoate]
Details | vapor or sublimation pressure [kPa]
446.06 K | 1.33
460.03 K | 2.67
470.26 K | 4
476.75 K | 5.33
481.32 K | 6.67
487.01 K | 8
492.47 K | 9.33

CCCCCCCCCCCCCCCC(=O)OCC [ethyl hexadecanoate]
Details | vapor or sublimation pressure [kPa]
464.49 K | 1.33
481.9 K | 2.67
495.23 K | 4
502.27 K | 5.33
508.1 K | 6.67
512.23 K | 8
515.13 K | 9.33

CCCCCCCCCCCC(=O)OCC [ethyl dodecanoate]
Details | vapor or sublimation pressure [kPa]
420.05 K | 1.33
432.13 K | 2.67
443.41 K | 4
451.05 K | 5.33
456.47 K | 6.67
462.44 K | 8
464.35 K | 9.33

CCCCCCCCCCCCCCCCCC(=O)OCC [ethyl octadecanoate]
Details | vapor or sublimation pressure [kPa]
490.97 K | 1.33
505.55 K | 2.67
512.98 K | 4
520.56 K | 5.33
524.45 K | 6.67
525.78 K | 8
533.97 K | 9.33

CCCCCCCC/C=C\CCCCCCCC(=O)OCC [ethyl (Z)-9-octadeceneoate]
Details | vapor or sublimation pressure [kPa]
486.64 K | 1.33
500.98 K | 2.67
508.03 K | 4
514.61 K | 5.33
523.69 K | 6.67
528.56 K | 8
536.83 K | 9.33

CCCCC/C=C\C/C=C\CCCCCCCC(=O)OCC [ethyl linoleate]
Details | vapor or sublimation pressure [kPa]
486.64 K | 1.33
501.94 K | 2.67
510.65 K | 4
515.7 K | 5.33
520.91 K | 6.67
527.47 K | 8
537.39 K | 9.33
